The values below come from PubChem BioAssay (NCI).

Test systems include SNB-78 CNS; SK-MEL-28 melanoma; UO-31 renal; HOP-62 NSCLC; M19-MEL melanoma; MOLT-4 leukemia; A498 renal; SR leukemia; NCI-H522 lung; DU-145 prostate.
Holding throughout (assay): NCI anticancer screen, dose series, 48 h

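Where inhibition never reached the appropriate level, the endpoint shown equals the highest concentration tested. Otherwise, values were interpolated linearly from a five-concentration, 48-hour dose response in 96-well plates. The concentration for 50% growth inhibition is given as GI50. Definition used: TGI = concentration required for complete inhibition of growth.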 Where only a bound is given, the exact number is not on record here.

With `O/N=C1/CCCC/C1=C\c1ccc(Cl)c(Cl)c1`, the TGI in the test on SNB-78 CNS is 70.5 µM; in the test on SK-MEL-28 melanoma, over 100 µM; with UO-31 renal, 46.2 µM; with HOP-62 NSCLC, over 100 µM; in the test with M19-MEL melanoma, over 100 µM; with MOLT-4 leukemia it was 36.4 µM. Also, the TGI in the test on A498 renal is 84.5 µM.

`CC(=O)N1c2ccccc2N(C(C)=O)C1c1ccc(C2N(C(C)=O)c3ccccc3N2C(C)=O)[nH]1`: the TGI in the test on UO-31 renal, with SR leukemia, in the test with HOP-62 NSCLC, with M19-MEL melanoma, in the test on MOLT-4 leukemia and with NCI-H522 lung was over 100 µM each time. In addition, the TGI with A498 renal was over 100 µM.

As for `NC1=NN(c2ccccc2)C(=O)C1C(=O)C(=O)Nc1ccccc1` (stereo unspecified), the TGI in the test with SNB-78 CNS, in the test on UO-31 renal, with HOP-62 NSCLC, in the test with M19-MEL melanoma, with MOLT-4 leukemia and with NCI-H522 lung was over 100 µM each time. In addition, the TGI in the test on A498 renal was over 100 µM.

`COc1ccc(/C=C/c2onc3c(=O)n(C)nc(-c4ccccc4)c23)cc1`: the TGI with SK-MEL-28 melanoma, with UO-31 renal, with HOP-62 NSCLC, with M19-MEL melanoma, in the test with MOLT-4 leukemia and in the test on NCI-H522 lung was over 100 µM in each case.

For `COc1cccc(S(=O)(=O)NC2=NCCN2C(=S)SN2CCn3c2nsc3=S)c1`, the GI50 in the test on SK-MEL-28 melanoma is 31.4 µM; in the test with UO-31 renal, 23.3 µM; with SR leukemia, 18 µM; in the test on HOP-62 NSCLC it was 55.5 µM; with DU-145 prostate, 44.2 µM; with MOLT-4 leukemia, 32.5 µM. For the same molecule, the GI50 was 20.1 µM in the test on NCI-H522 lung and 68.4 µM in the test with A498 renal. Besides, the TGI with SK-MEL-28 melanoma is 74.2 µM; in the test on UO-31 renal, 49.1 µM; in the test with SR leukemia, 51.3 µM; in the test with HOP-62 NSCLC, over 100 µM; with DU-145 prostate, over 100 µM; in the test with MOLT-4 leukemia it was over 100 µM. Besides, the TGI in the test on NCI-H522 lung is 40.9 µM; with A498 renal, over 100 µM.

For the molecule `COC(=O)c1c2c(c(C)[n+]([O-])c1C)C(=O)C(NCc1ccccc1)=CC2=O`, the GI50 in the test on SK-MEL-28 melanoma is 4.63 µM; with UO-31 renal, 2.9 µM; in the test with SR leukemia it was 3 µM; in the test with HOP-62 NSCLC, 3.1 µM; with DU-145 prostate, 3.5 µM; in the test with MOLT-4 leukemia, 2.21 µM. Moreover, the results for the GI50 in the test with NCI-H522 lung and in the test on A498 renal were 2.45 µM and 4.72 µM, respectively. Besides, the TGI is 22.2 µM with SK-MEL-28 melanoma; 10.1 µM in the test on UO-31 renal; 31.4 µM in the test on SR leukemia; 17.9 µM with HOP-62 NSCLC; 11.2 µM with DU-145 prostate; 5.6 µM in the test on MOLT-4 leukemia. The TGI in the test with NCI-H522 lung turned out to be 7.62 µM; with A498 renal, 16.1 µM.

Regarding `CCCCCSc1ccc2nc(NC(=O)OCC)sc2c1`, the GI50 with SK-MEL-28 melanoma was 66.2 µM; in the test on UO-31 renal, 1.39 µM; with SR leukemia, 0.274 µM; in the test on HOP-62 NSCLC, 0.491 µM; in the test on DU-145 prostate it was 1.72 µM; with MOLT-4 leukemia, 0.85 µM. Moreover, the values for the GI50 in the test with NCI-H522 lung and in the test with A498 renal were 0.245 µM and 1.22 µM, respectively. The TGI was over 100 µM in the test on SK-MEL-28 melanoma; over 100 µM in the test with UO-31 renal; over 100 µM in the test on SR leukemia; 31.1 µM in the test with HOP-62 NSCLC; over 100 µM with DU-145 prostate; over 100 µM in the test with MOLT-4 leukemia. Also, the TGI in the test with NCI-H522 lung stood at 0.865 µM; in the test with A498 renal, 7.88 µM.

Take `CCOC(=O)Cc1csc(NC(=O)C(OC(=O)c2ccc(Cl)cc2)c2ccccc2)n1` (stereo unspecified): the GI50 in the test on SK-MEL-28 melanoma was 25.2 µM; with UO-31 renal, 47.1 µM; in the test with SR leukemia it was 13.4 µM; with HOP-62 NSCLC it was 44.1 µM; with DU-145 prostate, 72.7 µM; in the test with MOLT-4 leukemia, 26 µM. Further, the GI50 in the test on NCI-H522 lung is 46 µM; in the test on A498 renal, over 100 µM. For the same molecule, the TGI was 69.2 µM in the test with SK-MEL-28 melanoma; over 100 µM in the test on UO-31 renal; 58.7 µM in the test on SR leukemia; over 100 µM with HOP-62 NSCLC; over 100 µM in the test on DU-145 prostate; over 100 µM in the test with MOLT-4 leukemia. The TGI with NCI-H522 lung and in the test with A498 renal was over 100 µM each time.

As for `COc1cc(-n2cc(-c3ccc(Cl)cc3)n(-c3ccccc3)c2=O)cc(OC)c1OC`, the GI50 in the test on SK-MEL-28 melanoma is 21.4 µM; in the test with UO-31 renal, 16.6 µM; in the test with SR leukemia it was 4.48 µM; in the test with HOP-62 NSCLC it was 44.3 µM; in the test on DU-145 prostate it was 43.6 µM; in the test with MOLT-4 leukemia it was 11.3 µM. In addition, the values for the GI50 with NCI-H522 lung and in the test on A498 renal were 18.3 µM and 15.1 µM, respectively. The TGI in the test on SK-MEL-28 melanoma was over 100 µM; in the test with UO-31 renal, over 93.9 µM; in the test with SR leukemia it was over 38.4 µM; in the test on HOP-62 NSCLC it was over 100 µM; in the test on DU-145 prostate, over 100 µM; with MOLT-4 leukemia, over 51.6 µM. In addition, the TGI in the test with NCI-H522 lung is over 76 µM; in the test with A498 renal, 74.5 µM.

On to `Nc1nc(-c2cccnc2)cc(-c2cc(-c3cccnc3)nc(N)n2)n1`, for which the TGI in the test with SK-MEL-28 melanoma, in the test with UO-31 renal, in the test with SR leukemia, in the test with HOP-62 NSCLC, in the test with DU-145 prostate and in the test with MOLT-4 leukemia was over 100 µM each time. Besides, the TGI in the test on NCI-H522 lung and in the test on A498 renal was over 100 µM each time.

Turning to `NC(=O)c1cn(C2CC(O)C(CO)O2)c2ncnc(N)c12` (stereo unspecified), the GI50 in the test on SK-MEL-28 melanoma is 7.28 µM; in the test with UO-31 renal it was 1.84 µM; with SR leukemia, 6.6 µM; in the test on HOP-62 NSCLC, 5.36 µM; in the test with DU-145 prostate, 1.41 µM; with MOLT-4 leukemia, 0.611 µM. Also, the values for the GI50 in the test with NCI-H522 lung and in the test on A498 renal were 4.27 µM and 1.97 µM, respectively. For the same molecule, the TGI with SK-MEL-28 melanoma is over 83.1 µM; in the test on UO-31 renal it was 18.5 µM; with SR leukemia, over 100 µM; in the test with HOP-62 NSCLC, 49.7 µM; in the test with DU-145 prostate, 10.4 µM; with MOLT-4 leukemia, over 100 µM. Moreover, the TGI in the test with NCI-H522 lung is 16.2 µM; in the test with A498 renal, 7.93 µM.
